Among the data in US20260184687A1, “DIHYDROINDENE DERIVATIVES AS MALT1 INHIBITORS” (C4X Discovery Limited, priority 2022, published 2026) are IC50 values, retold here.

Assay [1] concerns IL-2 release from stimulated Jurkat cells. The experiment in a line: Human IL-2 Release Phenotypic Assay (Assay 3). The format is cell-based. Particulars: Jurkat cells (clone E6-1), 200 ng/mL PMA + 300 ng/mL ionomycin, IL-2 by ELISA. The procedure:
This assay measured the inhibition by MALT1 inhibitors of the IL-2 release from stimulated Jurkat cells, a human immortalized T lymphocyte cell line. IL-2 production from Jurkat cells is regulated by activation of NFκB signalling, which is in turn regulated by MALT1 protease activity.
Jurkat cells (clone E6-1, ATCC) were cultured in RPMI1640 supplemented with 10% (v/v) FBS and 1% (v/v) penicillin/streptomycin (100× liquid stocks). Cells were seeded in 96-well white tissue culture-treated plates (Perkin Elmer) at 50 000 cells/well and incubated overnight at 37° C., 5% CO2. Test compounds in DMSO at half-log dilutions were added to the cells and incubated for 30 mins. Final DMSO concentration was 0.5%. Cells were then stimulated with 200 ng/mL PMA+300 ng/mL ionomycin and incubated for 48 hours. […] IC50 values were calculated using GraphPad Prism using 4-parameter non-linear regression curve fit.
For orientation: In an ELISA, binding on a coated surface is turned into a signal by an enzyme label.

A further assay addresses T1, FL hMALT1 enzyme (Homo sapiens, UniProt Q9UDY8).
T1 sequence (Q9UDY8 1-824): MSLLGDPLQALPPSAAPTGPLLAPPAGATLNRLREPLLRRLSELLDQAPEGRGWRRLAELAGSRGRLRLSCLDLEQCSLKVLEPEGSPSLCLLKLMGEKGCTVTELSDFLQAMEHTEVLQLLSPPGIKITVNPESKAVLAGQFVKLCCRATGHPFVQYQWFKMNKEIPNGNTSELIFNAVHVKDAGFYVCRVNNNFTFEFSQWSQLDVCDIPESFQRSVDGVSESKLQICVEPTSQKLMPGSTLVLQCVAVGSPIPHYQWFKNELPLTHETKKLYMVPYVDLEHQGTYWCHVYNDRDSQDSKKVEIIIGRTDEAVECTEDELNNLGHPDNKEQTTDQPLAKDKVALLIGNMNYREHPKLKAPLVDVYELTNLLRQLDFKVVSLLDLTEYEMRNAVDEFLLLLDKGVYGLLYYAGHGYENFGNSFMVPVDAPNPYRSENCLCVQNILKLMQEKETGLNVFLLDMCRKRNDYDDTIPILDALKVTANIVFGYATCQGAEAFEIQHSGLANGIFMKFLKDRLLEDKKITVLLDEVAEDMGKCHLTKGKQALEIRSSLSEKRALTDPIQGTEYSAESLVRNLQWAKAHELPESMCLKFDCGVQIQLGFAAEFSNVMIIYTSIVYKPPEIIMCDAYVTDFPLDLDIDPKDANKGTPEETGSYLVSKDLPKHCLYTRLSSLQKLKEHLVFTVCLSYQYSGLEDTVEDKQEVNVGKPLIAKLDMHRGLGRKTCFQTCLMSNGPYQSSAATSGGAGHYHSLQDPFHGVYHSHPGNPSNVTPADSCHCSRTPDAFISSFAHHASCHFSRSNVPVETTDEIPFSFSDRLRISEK
The experiment in a line: biochemical.

Structures are written as SMILES.

Experimental for FL hMALT1 enzyme: MALT1 protease activity was assessed in vitro by measuring the cleavage of a fluorogenic tetrapeptide substrate.
For a higher sensitivity assay, commercially available FL hMALT1 enzyme (Abcam, 1-10 nM) was incubated with substrate (Ac-LVSR-AMC, 100 μM) in reaction buffer comprising 50 mM HEPES (pH7.0), 25 mM KCl, 0.1% (v/v) CHAPS, 1 mM TCEP and 0.7 M sodium citrate.
Test compounds dissolved in DMSO were dispensed into assay plates (384-well, black, shallow ProxiPlates). 7 μl enzyme solution was added and incubated at room temperature for 30 minutes to allow compound binding to occur. 2 μl substrate solution was then added and the fluorescence (excitation 360 nm, emission 460 nm) read every 15 minutes using a suitable plate reader. Final assay DMSO concentration was 1%. […] IC50 values were calculated using GraphPad Prism using a 4-parameter non-linear regression curve fit.

In general, IC50 refers to the point on the concentration scale where inhibition reaches its midpoint. For the compound `CN(C(=O)[C@@H]1CC(=O)N1)[C@@H](c1ccc(N[C@H]2Cc3ccccc3C2(C)C)cn1)C(F)(F)F` [Example 165, (S)—N—((S)-1-(5-(((S)-1,1-Dimethyl-2,3-dihydro-1H-inden-2-yl)amino)pyridin-2-yl)-2,2,2-trifluoroethyl)-N-methyl-4-oxoazetidine-2-carboxamide], the IC50 in assay [1] (Homo sapiens, Jurkat, 48 h) turned out to be 450 nM; on FL hMALT1 enzyme it was 87 nM.

As for `CN(C(=O)C1CCS(=O)(=O)CC1)[C@@H](c1ccc(NC2Cc3ccc(F)c(Cl)c3C2)cn1)C(F)(F)F` (single isomer, unassigned) [Example 265], the IC50 came out at 220 nM in assay [1] (Homo sapiens, Jurkat, 48 h) and 32 nM on FL hMALT1 enzyme.

As for `CN(C(=O)[C@H]1C[C@H](N(C)C)C1)[C@@H](c1ccc(NC2Cc3ccccc3C2(C)C)nc1)C(F)(F)F` (single isomer, unassigned) [Example 115], the IC50 in assay [1] (48 hours) came to 510 nM; at FL hMALT1 enzyme, 240 nM.

On to `CN1C(=O)CCC1C(=O)N(C)[C@@H](c1ccc(N[C@H]2Cc3ccccc3C2(C)C)cn1)C(F)(F)F` (single isomer, unassigned) [Example 226], for which the IC50 in assay [1] (48 hours) amounted to 250 nM; against FL hMALT1 enzyme, 39 nM.

`CN(C(=O)C1CCS(=O)(=O)CC1)[C@@H](c1ccc(NC2Cc3ccc(Cl)c(Cl)c3C2)cn1)C(F)(F)F` (single isomer, unassigned) [Example 279]: the IC50 in assay [1] (Homo sapiens, Jurkat, 48 h) is 96 nM; against FL hMALT1 enzyme it was 15 nM.

Take `CN(C(=O)N1CCS(=O)(=O)CC1)[C@@H](c1ccc(NC2Cc3ccccc3C2(C)C)cn1)C(F)(F)F` (single isomer, unassigned) [Example 142]: the IC50 is 1790 nM in assay [1] (Homo sapiens, Jurkat, 48 h) and 200 nM against FL hMALT1 enzyme.

For the compound `CCN(C(=O)C1CCS(=O)(=O)CC1)[C@@H](c1ccc(NC2Cc3ccccc3C2(C)C)cn1)C(F)(F)F` (single isomer, unassigned) [Example 189], the figures for the IC50 (in assay [1] (48 hours); against FL hMALT1 enzyme) were 3000 nM and 91 nM, respectively.

On to `CN(C(=O)C1CC2(CCC(=O)N2)C1)[C@@H](c1ccc(NC2Cc3ccc(Cl)c(Cl)c3C2)cn1)C(F)(F)F` (single isomer, unassigned) [Example 341], for which the IC50 turned out to be 100 nM in assay [1] (48 hours) and 15 nM at FL hMALT1 enzyme.

Consider `CN(C(=O)[C@@H]1CNC(=O)C1)[C@@H](c1ccc(N[C@H]2Cc3ccccc3C2(C)C)cn1)C(F)(F)F` [Example 160, (S)—N—((S)-1-(5-(((S)-1,1-Dimethyl-2,3-dihydro-1H-inden-2-yl)amino)pyridin-2-yl)-2,2,2-trifluoroethyl)-N-methyl-5-oxopyrrolidine-3-carboxamide], for which the IC50 in assay [1] (Homo sapiens, Jurkat, 48 h) turned out to be 180 nM.

With `CNC(=O)[C@H]1C[C@@H](C(=O)N(C)[C@@H](c2ccc(N[C@H]3Cc4ccccc4C3(C)C)cn2)C(F)(F)F)C1` [Example 240, (1,3-cis)-N^1—((S)-1-(5-(((S)-1,1-Dimethyl-2,3-dihydro-1H-inden-2-yl)amino)pyridin-2-yl)-2,2,2-trifluoroethyl)-N^1,N^3-dimethylcyclobutane-1,3-dicarboxamide], the IC50 in assay [1] (Homo sapiens, Jurkat, 48 h) is 330 nM.

Turning to `CN(C(=O)[C@@H]1CCC(=O)NC1)[C@@H](c1ccc(N[C@H]2Cc3ccccc3C2(C)C)nc1)C(F)(F)F` [Example 218, (R)—N—((S)-1-(6-(((S)-1,1-dimethyl-2,3-dihydro-1H-inden-2-yl)amino)pyridin-3-yl)-2,2,2-trifluoroethyl)-N-methyl-6-oxopiperidine-3-carboxamide], in assay [1] (Homo sapiens, Jurkat, 48 h), the IC50 is 430 nM.

As for `CNC(=O)[C@H]1C[C@H](C(=O)N(C)[C@@H](c2ccc(N[C@H]3Cc4ccccc4C3(C)C)cn2)C(F)(F)F)C1` [Example 247, (1,3-trans)-N—((S)-1-(5-(((S)-1,1-Dimethyl-2,3-dihydro-1H-inden-2-yl)amino)pyridin-2-yl)-2,2,2-trifluoroethyl)-N^1,N^3-dimethylcyclobutane-1,3-dicarboxamide], the IC50 in assay [1] (Homo sapiens, Jurkat, 48 h) amounted to 170 nM.

On to `CC(=O)N[C@H]1C[C@H](C(=O)N(C)[C@@H](c2ccc(N[C@H]3Cc4ccccc4C3(C)C)cn2)C(F)(F)F)C1` [Example 186, (1,3-trans)-3-Acetamido-N—((S)-1-(5-(((S)-1,1-dimethyl-2,3-dihydro-1H-inden-2-yl)amino)pyridin-2-yl)-2,2,2-trifluoroethyl)-N-methylcyclobutane-1-carboxamide], for which, in assay [1] (Homo sapiens, Jurkat, 48 h), the IC50 was 460 nM.

As to `CN(C(=O)N1CCC(C)(O)CC1)[C@@H](c1ccc(NC2Cc3ccccc3C2(C)C)cc1)C(F)(F)F` (single isomer, unassigned) [Example 16], in assay [1] (48 hours), the IC50 worked out at 250 nM.

On to `CN(C(=O)N1CCC(C)(O)CC1)[C@@H](c1ccc(NC2Cc3ccccc3C2(C)C)cc1)C(F)(F)F` (single isomer, unassigned) [Example 17], for which the IC50 in assay [1] (48 hours) amounted to 2950 nM.

For the compound `CN(C(=O)c1cc[nH]c(=O)c1)C(c1ccc(NC2Cc3ccccc3C2(C)C)nc1)C(F)(F)F` (single isomer, unassigned) [Example 101, N-(1-(6-((1,1-Dimethyl-2,3-dihydro-1H-inden-2-yl)amino)pyridin-3-yl)-2,2,2-trifluoroethyl)-N-methyl-2-oxo-1,2-dihydropyridine-4-carboxamide], the IC50 in assay [1] (48 hours) is 2640 nM.

Take `CC(=O)N1CC[C@H](C(=O)N(C)[C@@H](c2ccc(N[C@H]3Cc4ccccc4C3(C)C)cn2)C(F)(F)F)C1` [Example 169, (S)-1-Acetyl-N—((S)-1-(5-(((S)-1,1-dimethyl-2,3-dihydro-1H-inden-2-yl)amino)pyridin-2-yl)-2,2,2-trifluoroethyl)-N-methylpyrrolidine-3-carboxamide]: the half-maximal inhibitory concentration (IC50) in assay [1] (Homo sapiens, Jurkat, 48 h) was 720 nM.

Take `CN(C(=O)C1CCS(=O)(=O)CC1)[C@@H](c1ccc(NC2Cc3ccccc3C2)cc1)C(F)(F)F` [Example 3, (S)—N-(1-(4-((2,3-Dihydro-1H-inden-2-yl)amino)phenyl)-2,2,2-trifluoroethyl)-N-methyltetrahydro-2H-thiopyran-4-carboxamide 1,1-dioxide]: the IC50 in assay [1] (Homo sapiens, Jurkat, 48 h) is 1940 nM.

In the case of `CN(C(=O)CC1CCS(=O)(=O)CC1)[C@@H](c1ccc(N[C@H]2Cc3ccccc3C2(C)C)cn1)C(F)(F)F` [Example 196, N—((S)-1-(5-(((S)-1,1-Dimethyl-2,3-dihydro-1H-inden-2-yl)amino)pyridin-2-yl)-2,2,2-trifluoroethyl)-2-(1,1-dioxidotetrahydro-2H-thiopyran-4-yl)-N-methylacetamide], the IC50 in assay [1] (Homo sapiens, Jurkat, 48 h) was 860 nM.

Take `CN(C(=O)[C@@H]1CCC(=O)N1)[C@@H](c1ccc(N[C@H]2Cc3ccccc3C2(C)C)cn1)C(F)(F)F` [Example 170, (S)—N—((S)-1-(5-(((S)-1,1-Dimethyl-2,3-dihydro-1H-inden-2-yl)amino)pyridin-2-yl)-2,2,2-trifluoroethyl)-N-methyl-5-oxopyrrolidine-2-carboxamide]: the half-maximal inhibitory concentration (IC50) in assay [1] (Homo sapiens, Jurkat, 48 h) came to 210 nM.

Consider `Cc1cc2c(cc1C)CC(Nc1ccc([C@H](N(C)C(=O)C3CCS(=O)(=O)CC3)C(F)(F)F)nc1)C2` [Example 260, (S)—N-(1-(5-((5,6-Dimethyl-2,3-dihydro-1H-inden-2-yl)amino)pyridin-2-yl)-2,2,2-trifluoroethyl)-N-methyltetrahydro-2H-thiopyran-4-carboxamide 1,1-dioxide], for which, in assay [1] (Homo sapiens, Jurkat, 48 h), the 50% inhibitory concentration (IC50) is 860 nM.

Take `CC(=O)N1CC[C@@H](C(=O)N(C)[C@@H](c2ccc(N[C@H]3Cc4ccccc4C3(C)C)cn2)C(F)(F)F)C1` [Example 192, (R)-1-Acetyl-N—((S)-1-(5-(((S)-1,1-dimethyl-2,3-dihydro-1H-inden-2-yl)amino)pyridin-2-yl)-2,2,2-trifluoroethyl)-N-methylpyrrolidine-3-carboxamide]: the IC50 in assay [1] (Homo sapiens, Jurkat, 48 h) was found to be 440 nM.

On to `CN(C(=O)[C@@H]1CNC(=O)C1)[C@@H](c1ccc(N[C@H]2Cc3ccc(Cl)cc3C2)cn1)C(F)(F)F` [Example 300, (S)—N—((S)-1-(5-(((S)-5-Chloro-2,3-dihydro-1H-inden-2-yl)amino)pyridin-2-yl)-2,2,2-trifluoroethyl)-N-methyl-5-oxopyrrolidine-3-carboxamide], for which the IC50 in assay [1] (Homo sapiens, Jurkat, 48 h) came out at 350 nM.

Take `CN(C(=O)c1cc[nH]c(=O)c1)C(c1ccc(NC2Cc3ccccc3C2(C)C)nc1)C(F)(F)F` (single isomer, unassigned) [Example 100, N-(1-(6-((1,1-Dimethyl-2,3-dihydro-1H-inden-2-yl)amino)pyridin-3-yl)-2,2,2-trifluoroethyl)-N-methyl-2-oxo-1,2-dihydropyridine-4-carboxamide]: the IC50 in assay [1] (48 hours) is 850 nM.
